Values quoted from earlier work as cited in patent US7998503B2, “Form of administration for controlling primary headaches” (LTS Lohmann Therapie-Systeme AG, priority 2003, dated 2011).

Settings: nasally administered, literature report

CCN(CC)CC(=O)Nc1c(C)cccc1C [lidocaine]
effect on migraine pain after nasal administration (e.g. sprays): fast decline in migraine pain
renewed appearance of the pain after administration (shortly after administration): recurrence, meaning renewed appearance of the pain, was found shortly after administration
